The values that follow come from paper PMC9945863, “Pyridine based dual binding site aromatase (CYP19A1) inhibitors” (RSC Medicinal Chemistry, 2023).

One series addresses T1, Aromatase (CYP19A1) (Homo sapiens, UniProt P11511).
T1 construct: placental choriocarcinoma JEG-3 cells, known to have high aromatase activity; host or cells: JEG-3
T1 sequence (P11511 1-503): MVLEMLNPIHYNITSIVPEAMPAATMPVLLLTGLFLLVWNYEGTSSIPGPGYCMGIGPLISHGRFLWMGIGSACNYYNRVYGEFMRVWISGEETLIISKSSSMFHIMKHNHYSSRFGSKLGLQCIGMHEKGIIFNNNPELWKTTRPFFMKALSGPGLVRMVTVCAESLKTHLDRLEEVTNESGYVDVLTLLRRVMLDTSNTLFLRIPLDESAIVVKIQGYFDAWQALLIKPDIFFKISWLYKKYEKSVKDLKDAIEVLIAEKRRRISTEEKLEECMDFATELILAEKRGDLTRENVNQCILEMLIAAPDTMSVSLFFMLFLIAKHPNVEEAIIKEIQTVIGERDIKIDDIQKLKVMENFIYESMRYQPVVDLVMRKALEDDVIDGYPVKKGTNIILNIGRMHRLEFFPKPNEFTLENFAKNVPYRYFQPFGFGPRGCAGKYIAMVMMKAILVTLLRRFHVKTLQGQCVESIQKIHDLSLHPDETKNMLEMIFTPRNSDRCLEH
Description: Aromatase activity, modified tritiated water assay in JEG-3 cells. Format: cell-based. As for the experimental part:
Briefly, placental choriocarcinoma JEG-3 cells, known to have high aromatase activity, were grown to approximately 80% confluence in six-well culture plates. Once established, cells were treated with androst-4-ene-3,17-dione[1β-^3H] as aromatase substrate. Aromatase activity was measured in the absence and presence of inhibitors (Fig. 3).
Aromatase activity results were determined as a concentration of product formed per mg of protein per hour.
Aromatase activity was assayed using a modified tritiated water assay as previously reported.[12] JEG-3 cells were grown in 1 mL EMEM to approximately 80% confluence in six-well cell culture plates. Androst-4-ene-3,17-dione[1β-^3H] was dissolved in serum-free cell culture medium and added into each well. Aromatase activity was measured in the absence and presence of inhibitor (0.001–10 nM). After a 1 h incubation at 37 °C followed by a 5 min incubation on ice, 500 μL of culture medium was taken from each well. Medium was vortexed with 2% dextran-treated charcoal (Sigma-Aldrich) in PBS and centrifuged at 4000 rpm. The supernatant containing the product, [^3H] H2O, was quantified by scintillation counting. Cell protein concentrations were determined using Pierce BCA assay kit (Thermo Fisher Scientific). Aromatase activity results were determined as a concentration of product formed per mg of protein per hour (pmol mg^−1 h^−1).

The target in another series is CYP2D6 (Homo sapiens, UniProt P10635). Briefly: CYP panel inhibition, human liver microsomal assay (Cyprotex). To be noted: read-out: CYP2D6 IC50; human liver microsomes, isoform specific probe substrate. In general terms: Liver microsomes are a subcellular fraction often used to study metabolism.
Chain of CYP2D6 (P10635 whole entry, canonical isoform): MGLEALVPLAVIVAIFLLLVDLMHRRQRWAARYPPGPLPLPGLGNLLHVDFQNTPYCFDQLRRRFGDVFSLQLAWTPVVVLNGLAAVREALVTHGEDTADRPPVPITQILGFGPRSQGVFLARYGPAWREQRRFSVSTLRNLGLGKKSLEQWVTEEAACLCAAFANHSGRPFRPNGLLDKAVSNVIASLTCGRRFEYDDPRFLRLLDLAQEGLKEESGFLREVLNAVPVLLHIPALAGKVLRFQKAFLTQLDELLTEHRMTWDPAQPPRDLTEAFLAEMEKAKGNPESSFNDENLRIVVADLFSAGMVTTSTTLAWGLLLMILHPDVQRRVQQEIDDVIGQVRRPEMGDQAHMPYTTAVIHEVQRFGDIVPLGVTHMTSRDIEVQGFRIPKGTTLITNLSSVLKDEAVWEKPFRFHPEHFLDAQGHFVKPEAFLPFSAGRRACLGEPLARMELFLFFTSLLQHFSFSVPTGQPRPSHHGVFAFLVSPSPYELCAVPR
Series [1] deals with T2, CYP2C9 (relative to CYP19A1) (Homo sapiens, UniProt P11712).
T2 construct: using a human liver microsomal assay with a CYP isoform specific probe substrate; tissue Cyprotex Discovery Limited; host or cells: human liver microsomes
T2 sequence (P11712 whole entry, canonical isoform): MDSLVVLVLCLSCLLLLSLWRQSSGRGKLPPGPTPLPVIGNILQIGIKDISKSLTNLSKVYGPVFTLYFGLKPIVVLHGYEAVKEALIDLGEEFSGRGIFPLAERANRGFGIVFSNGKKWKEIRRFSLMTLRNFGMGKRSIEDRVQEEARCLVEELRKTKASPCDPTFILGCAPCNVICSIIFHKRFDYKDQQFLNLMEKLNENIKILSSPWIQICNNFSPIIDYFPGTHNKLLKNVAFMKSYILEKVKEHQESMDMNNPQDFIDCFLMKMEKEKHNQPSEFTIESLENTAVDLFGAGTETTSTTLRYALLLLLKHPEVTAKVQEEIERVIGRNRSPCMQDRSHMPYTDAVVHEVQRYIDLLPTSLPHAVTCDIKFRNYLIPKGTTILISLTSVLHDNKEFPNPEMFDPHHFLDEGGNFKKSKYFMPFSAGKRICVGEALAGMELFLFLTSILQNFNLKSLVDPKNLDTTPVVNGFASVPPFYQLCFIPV
Described as above. Type of series: in vitro ADME. To be noted: human, human liver microsomes; ratio of CYP IC50 to CYP19A1 IC50; read-out: Selectivity CYP19A1 compared with CYP2C9.

The target in series [2] is T3, CYP2C9 (Homo sapiens, UniProt P11712).
T3 construct: tissue Cyprotex Discovery Limited; host or cells: human liver microsomes
T3 sequence (P11712 whole entry): as the sequence (P11712 whole entry, canonical isoform) above
Described as above. Format: in vitro ADME. To be noted: human liver microsomes, isoform specific probe substrate.

In series [3] the target is T4, CYP3A4 (relative to CYP19A1) (Homo sapiens, UniProt P08684).
T4 construct: using a human liver microsomal assay with a CYP isoform specific probe substrate; tissue Cyprotex Discovery Limited; host or cells: human liver microsomes
T4 sequence (P08684 whole entry, canonical isoform): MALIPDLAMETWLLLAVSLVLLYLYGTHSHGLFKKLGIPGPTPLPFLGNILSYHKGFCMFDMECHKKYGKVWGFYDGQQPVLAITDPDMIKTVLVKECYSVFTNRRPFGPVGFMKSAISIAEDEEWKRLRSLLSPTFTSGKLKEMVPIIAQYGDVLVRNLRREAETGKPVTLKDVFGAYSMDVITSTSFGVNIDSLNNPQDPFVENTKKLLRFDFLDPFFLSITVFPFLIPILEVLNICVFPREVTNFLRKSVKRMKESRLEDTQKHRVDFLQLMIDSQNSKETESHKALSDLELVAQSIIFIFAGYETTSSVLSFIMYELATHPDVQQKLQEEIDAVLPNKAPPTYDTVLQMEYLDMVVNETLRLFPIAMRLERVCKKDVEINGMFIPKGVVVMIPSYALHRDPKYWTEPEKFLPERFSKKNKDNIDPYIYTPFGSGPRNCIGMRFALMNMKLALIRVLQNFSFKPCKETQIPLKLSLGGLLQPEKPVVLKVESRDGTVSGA
Described as above. Format: in vitro ADME. The settings on record: human, human liver microsomes; ratio of CYP IC50 to CYP19A1 IC50; read-out: Selectivity CYP19A1 compared with CYP3A4.

The target of series [4] is T5, CYP3A4 (Homo sapiens, UniProt P08684).
T5 construct: using a human liver microsomal assay with a CYP isoform specific probe substrate; tissue Cyprotex Discovery Limited; host or cells: human liver microsomes
T5 sequence (P08684 whole entry, canonical isoform): as above
The description is as above. Format: in vitro ADME. To be noted: human liver microsomes, isoform specific probe substrate.

Series [5] concerns the target CYP2D6 (relative to CYP19A1) (Homo sapiens, UniProt P10635). Description: in vitro. To be noted: Selectivity CYP19A1 compared with CYP2D6, ratio of CYP IC50 to CYP19A1 IC50.
Series [6] addresses T6, CYP2C19 (Homo sapiens, UniProt P33261).
T6 construct: using a human liver microsomal assay with a CYP isoform specific probe substrate; tissue Cyprotex Discovery Limited; host or cells: human liver microsomes
Briefly: CYP panel inhibition, human liver microsomal assay (Cyprotex). Type of series: in vitro ADME. To be noted: human liver microsomes, isoform specific probe substrate.

Series [7] concerns the target T7, CYP2C19 (relative to CYP19A1) (Homo sapiens, UniProt P33261).
T7 construct: using a human liver microsomal assay with a CYP isoform specific probe substrate; tissue Cyprotex Discovery Limited; host or cells: human liver microsomes
The description is as above. Type of series: in vitro ADME. The settings on record: human, human liver microsomes; ratio of CYP IC50 to CYP19A1 IC50; read-out: Selectivity CYP19A1 compared with CYP2C19.

The target in series [8] is T8, CYP1A2 (relative to CYP19A1) (Homo sapiens, UniProt P05177).
T8 construct: using a human liver microsomal assay with a CYP isoform specific probe substrate; tissue Cyprotex Discovery Limited; host or cells: human liver microsomes
T8 sequence (P05177 1-516): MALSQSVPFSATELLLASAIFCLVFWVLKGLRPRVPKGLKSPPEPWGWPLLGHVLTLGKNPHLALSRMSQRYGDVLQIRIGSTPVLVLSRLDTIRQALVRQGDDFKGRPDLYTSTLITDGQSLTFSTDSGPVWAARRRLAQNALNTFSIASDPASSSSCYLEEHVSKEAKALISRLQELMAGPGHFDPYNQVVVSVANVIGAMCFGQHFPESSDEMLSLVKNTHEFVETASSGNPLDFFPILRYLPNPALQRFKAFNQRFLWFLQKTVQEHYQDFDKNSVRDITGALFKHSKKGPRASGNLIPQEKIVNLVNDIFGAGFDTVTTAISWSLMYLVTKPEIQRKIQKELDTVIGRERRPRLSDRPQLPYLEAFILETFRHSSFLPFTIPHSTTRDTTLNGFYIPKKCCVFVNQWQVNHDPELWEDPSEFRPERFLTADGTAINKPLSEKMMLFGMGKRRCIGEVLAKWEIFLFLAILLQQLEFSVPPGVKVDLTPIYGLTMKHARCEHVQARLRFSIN
The description is as above. Format: in vitro ADME. To be noted: human, human liver microsomes; ratio of CYP IC50 to CYP19A1 IC50; read-out: Selectivity CYP19A1 compared with CYP1A2.

Series [9] has as its target T9, CYP1A2 (Homo sapiens, UniProt P05177).
T9 construct: using a human liver microsomal assay with a CYP isoform specific probe substrate; tissue Cyprotex Discovery Limited; host or cells: human liver microsomes
T9 sequence (P05177 1-516): T8 sequence (P05177 1-516)
The series is described as above. Type of series: in vitro ADME. To be noted: human liver microsomes, isoform specific probe substrate.

For series [10] the following is noted: heterocyclic nitrogen basicity; cited from earlier work.
Another series has as its system CYP2A6. The arrangement: method as in PMID 19198839, PMID 28977209. To be noted: cited from earlier work.
Series [11] relates to CYP2C19. Further details: method as in PMID 19198839, PMID 28977209. To be noted: cited from earlier work.
Series [12] relates to CYP1A2. To be noted: cited from earlier work.
Series [13] relates to CYP3A4. The settings on record: cited from earlier work.
Series [14] relates to CYP2C9. The settings on record: cited from earlier work.
Where [15] appears, read: JEG-3 cells, 0.001–10 nM inhibitor, 1 h incubation, triplicates, read-out: CYP19A1 IC50.

Where two headings read alike, the source gives them in different places.

The term IC50 denotes the midpoint of a concentration-inhibition curve. As usually defined, the pKa is the negative logarithm of the acid dissociation constant.

Chain of CYP2D6 (relative to CYP19A1) (P10635 whole entry): as the sequence (P10635 whole entry, canonical isoform) above
T6 sequence (P33261 whole entry, canonical isoform): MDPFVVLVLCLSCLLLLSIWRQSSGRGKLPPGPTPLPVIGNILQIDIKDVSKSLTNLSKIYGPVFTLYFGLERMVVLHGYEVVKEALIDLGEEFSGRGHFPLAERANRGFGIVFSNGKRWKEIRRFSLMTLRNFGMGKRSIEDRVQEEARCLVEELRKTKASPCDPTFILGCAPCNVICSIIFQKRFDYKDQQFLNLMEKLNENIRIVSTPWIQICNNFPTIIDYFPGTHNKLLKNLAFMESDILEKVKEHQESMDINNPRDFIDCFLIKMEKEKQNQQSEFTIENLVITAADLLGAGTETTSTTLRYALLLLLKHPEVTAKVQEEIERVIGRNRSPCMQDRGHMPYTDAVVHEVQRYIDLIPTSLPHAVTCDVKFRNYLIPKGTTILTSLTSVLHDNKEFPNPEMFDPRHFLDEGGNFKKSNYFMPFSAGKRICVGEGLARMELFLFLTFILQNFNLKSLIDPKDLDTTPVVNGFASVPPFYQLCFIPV
T7 sequence (P33261 whole entry, canonical isoform): as above

With `COc1ccc2cc(C(O)(c3ccc(Br)cc3)c3cccnc3)oc2c1` (stereo not drawn) [Compound 4c, (4-Bromophenyl)(6-methoxybenzofuran-2-yl)(pyridin-3-yl)methanol], the IC50 on Aromatase (CYP19A1) (setting [15]) turned out to be 0.0004 µM.

Take `CC#CCOc1ccc2cc(C(O)(c3ccc(F)cc3)c3cccnc3)oc2c1` (stereo not drawn) [Compound 10a, (6-(But-2-yn-1-yloxy)benzofuran-2-yl)(4-fluorophenyl)(pyridin-3-yl)methanol]: on Aromatase (CYP19A1) (setting [15]), the 50% inhibitory concentration (IC50) is approximately 0.01 µM.

In the case of `CC#CCOc1ccc2cc(C(O)(c3ccc(Br)cc3)c3cccnc3)oc2c1` (stereo not drawn) [Compound 10c, (4-Bromophenyl)(6-(but-2-yn-1-yloxy)benzofuran-2-yl)(pyridin-3-yl)methanol], the IC50 is more than 25000 nM at CYP2D6; 4900 ± 940 nM against CYP2C9 [2]; 3380 ± 510 nM against CYP3A4 [4]; 740 ± 160 nM against CYP2C19 [6]; 0.00083 µM on Aromatase (CYP19A1) (CYP19A1 value restated in μM in CYP profile table, read-out: IC50, CYP isoform 19A1); 0.00083 µM on Aromatase (CYP19A1) (setting [15]). The molecule also came in with an IC50 on CYP1A2 [9] of more than 25000 nM. The selectivity ratio in series [1] is 5900; in series [3] it was 4070; in series [5], more than 30000; in series [7] it was 892; in series [8], more than 30000.

With `CC#CCOc1ccc2cc(C(O)(c3cccnc3)c3ccc(Cl)cc3Cl)oc2c1` (stereo not drawn) [Compound 10d, (6-(But-2-yn-1-yloxy)benzofuran-2-yl)(2,4-dichlorophenyl)(pyridin-3-yl)methanol], the IC50 on Aromatase (CYP19A1) (setting [15]) was more than 0.01 µM.

As to `CC#CCOc1ccc2cc(C(O)(c3ccc(Cl)cc3)c3cccnc3)oc2c1` (stereo not drawn) [Compound 10b, (6-(But-2-yn-1-yloxy)benzofuran-2-yl)(4-chlorophenyl)(pyridin-3-yl)methanol], at Aromatase (CYP19A1) (setting [15]), the IC50 was 0.00105 µM.

Consider `c1nnn[nH]1` [tetrazole], for which the pKa in series [10] is listed as 4.8.

Consider `COc1ccc2cc(C(O)(c3cccnc3)c3ccc(Cl)cc3Cl)oc2c1` (stereo not drawn) [Compound 4d, (2′,4′-Dichlorophenyl)(6-methoxybenzofuran-2-yl)(pyridin-3-yl)methanol], for which the IC50 on Aromatase (CYP19A1) (setting [15]) came to 0.0019 µM.

With `N#Cc1ccc(C(c2ccc(C#N)cc2)n2cncn2)cc1` [Letrozole], the “inhibition of CYP2A6” value in the series on CYP2A6 is reported as “significant competitive inhibition”. For the same molecule, the “inhibition of CYP2C19” value in the series on CYP2C19 [11] was “modest inhibition”.

Turning to `CCC#CCOc1ccc2cc(C(O)(c3ccc(F)cc3)c3cccnc3)oc2c1` (stereo not drawn) [Compound 11a, (4-Fluorophenyl)(6-(pent-2-yn-1-yloxy)benzofuran-2-yl)(pyridin-3-yl)methanol], the IC50 on Aromatase (CYP19A1) (setting [15]) is approximately 0.01 µM.

For `CCC#CCOc1ccc2cc(C(O)(c3ccc(Cl)cc3)c3cccnc3)oc2c1` (stereo not drawn) [Compound 11b, (4-Chlorophenyl)(6-(pent-2-yn-1-yloxy)benzofuran-2-yl)(pyridin-3-yl)methanol], at Aromatase (CYP19A1) (setting [15]), the IC50 is 0.00092 µM.

On to `CCC#CCOc1ccc2cc(C(O)(c3cccnc3)c3ccc(Cl)cc3Cl)oc2c1` (stereo not drawn) [Compound 11d, (2,4-Dichlorophenyl)(6-(pent-2-yn-1-yloxy)benzofuran-2-yl)(pyridin-3-yl)methanol], for which the IC50 at Aromatase (CYP19A1) (setting [15]) is more than 0.01 µM.

Consider `CC(C)(C#N)c1cc(Cn2cncn2)cc(C(C)(C)C#N)c1` [anastrozole], for which the “inhibition of CYP1A2” value in the series with CYP1A2 [12] is given as “some inhibition”. Further, in the series on CYP3A4 [13], the “inhibition of CYP3A4” value is on record as “some inhibition”. The “inhibition of CYP2C9” value in the series with CYP2C9 [14] is on record as “some inhibition”.

Turning to `CCC#CCOc1ccc2cc(C(O)(c3ccc(Br)cc3)c3cccnc3)oc2c1` (stereo not drawn) [Compound 11c, (4-Bromophenyl)(6-(pent-2-yn-1-yloxy)benzofuran-2-yl)(pyridin-3-yl)methanol], on Aromatase (CYP19A1) (setting [15]), the IC50 was 0.0049 µM.
